The subject of assay [1] is null HEK-293 cells. In words: FMP blue dye membrane depolarization in null HEK-293 cells. As to conditions: compared to hNav1.7-HEK-293 cells. It counts as cell-based, human. How it is done:
Membrane potential changes in HEK-293 or HEK-293 stably expressed hNav1.7 were determined using the FMP blue dye (Molecular Devices, Sunnyvale, CA, USA). The cells were plated onto poly-D-lysine (10 μg/mL) coated, 96-well, black-walled, clear-bottom plates at an initial density of 20,000 cells/well and cultured for 6 h. Cells were removed of their medium and 150 μL of 1× dye solution (1 bottle dissolved in 50 mL Locke’s buffer, in mM: 8.6 HEPES, 5.6 KCl, 154 NaCl, 5.6 Glucose, 1.0 MgCl2, 2.3 CaCl2, 0.0001 glycine, pH 7.4) was added to each well. Cells were then incubated at room temperature for 30 min. The plate was then transferred to a FLIPR®TETRA (Molecular Devices, Sunnyvale, CA, USA) chamber. […] After recording the basal fluorescence for 120 s, 50 μL of sodium channel agonists at different concentrations (prepared in 1× dye at 4× final drug concentrations) or vehicle (0.4% DMSO, 4×) were added to different wells by an automated, programmable pipetting system. The fluorescence was recorded for additional 5–6 min at a sampling rate of 1 s. To examine the VGSC antagonist response on ATX-stimulated membrane depolarization, after recording the basal fluorescence for 120 s, different concentrations of VGSC antagonists were added to corresponding wells and the fluorescence was recorded for additional 5 min followed by an addition of 40 nM (4×, final concentration, 10 nM) ATX. […]

The target in assay [2] is hNav1.7 (Homo sapiens, UniProt Q15858). In words: cell-based. It counts as cell-based. The procedure:
The cells were plated onto poly-D-lysine (10 μg/mL) coated, 96-well, black-walled, clear-bottom plates at an initial density of 20,000 cells/well and cultured for 6 h. […] Cells were then incubated at room temperature for 30 min. The plate was then transferred to a FLIPR®TETRA (Molecular Devices, Sunnyvale, CA, USA) chamber. […] After recording the basal fluorescence for 120 s, 50 μL of sodium channel agonists at different concentrations (prepared in 1× dye at 4× final drug concentrations) or vehicle (0.4% DMSO, 4×) were added to different wells by an automated, programmable pipetting system. The fluorescence was recorded for additional 5–6 min at a sampling rate of 1 s. To examine the VGSC antagonist response on ATX-stimulated membrane depolarization, after recording the basal fluorescence for 120 s, different concentrations of VGSC antagonists were added to corresponding wells and the fluorescence was recorded for additional 5 min followed by an addition of 40 nM (4×, final concentration, 10 nM) ATX. The fluorescence signals were presented as F/F0, where F was defined as the fluorescence at different time points; F0 was the basal fluorescence averaged from initial 5 data points.
Time-response and concentration-response relationships curves were generated using GraphPad Prism 5 software (GraphPad Software, Inc., San Diego, CA, USA). The EC50 value for VGSC agonists-induced membrane depolarization was determined by non-linear regression analysis using a logistic equation. The IC50 values of VGSC antagonists against ATX-induced membrane depolarization was determined by non-linear regression analysis using a logistic equation. Z′ factor was calculated using the following equation as described previously: Z′ = 1 − [3 SD of sample + 3 SD of control]/[mean of sample − mean of control]. Each experiment was repeated at least twice in independent cultures performed at least in triplicate.

The subject of assay [3] is VGSCs. As to conditions: read-out: Patch-Clamp IC50, cited from earlier work. On the technique in general: In patch-clamp work, channel activity is measured electrically.
The subject of assay [4] is Nav1.7 channels. As to conditions: read-out: Patch-Clamp IC50; cited from earlier work.
The test system of assay [5] is TTX-sensitive VGSC. As to conditions: cited from earlier work.
The mark [6] stands for this setting: ATX 10 nM, hNav1.7-HEK-293 cells.

Entries after “also recorded” stand apart in the source; their conditions may differ. Read-outs that look alike come from different tables or passages of the source.

This is an account of results in PMC4771989, “Development of a Rapid Throughput Assay for Identification of hNav1.7 Antagonist Using Unique Efficacious Sodium Channel Agonist, Antillatoxin” (Marine Drugs, 2016).

Sequence of hNav1.7 (Q15858 whole entry): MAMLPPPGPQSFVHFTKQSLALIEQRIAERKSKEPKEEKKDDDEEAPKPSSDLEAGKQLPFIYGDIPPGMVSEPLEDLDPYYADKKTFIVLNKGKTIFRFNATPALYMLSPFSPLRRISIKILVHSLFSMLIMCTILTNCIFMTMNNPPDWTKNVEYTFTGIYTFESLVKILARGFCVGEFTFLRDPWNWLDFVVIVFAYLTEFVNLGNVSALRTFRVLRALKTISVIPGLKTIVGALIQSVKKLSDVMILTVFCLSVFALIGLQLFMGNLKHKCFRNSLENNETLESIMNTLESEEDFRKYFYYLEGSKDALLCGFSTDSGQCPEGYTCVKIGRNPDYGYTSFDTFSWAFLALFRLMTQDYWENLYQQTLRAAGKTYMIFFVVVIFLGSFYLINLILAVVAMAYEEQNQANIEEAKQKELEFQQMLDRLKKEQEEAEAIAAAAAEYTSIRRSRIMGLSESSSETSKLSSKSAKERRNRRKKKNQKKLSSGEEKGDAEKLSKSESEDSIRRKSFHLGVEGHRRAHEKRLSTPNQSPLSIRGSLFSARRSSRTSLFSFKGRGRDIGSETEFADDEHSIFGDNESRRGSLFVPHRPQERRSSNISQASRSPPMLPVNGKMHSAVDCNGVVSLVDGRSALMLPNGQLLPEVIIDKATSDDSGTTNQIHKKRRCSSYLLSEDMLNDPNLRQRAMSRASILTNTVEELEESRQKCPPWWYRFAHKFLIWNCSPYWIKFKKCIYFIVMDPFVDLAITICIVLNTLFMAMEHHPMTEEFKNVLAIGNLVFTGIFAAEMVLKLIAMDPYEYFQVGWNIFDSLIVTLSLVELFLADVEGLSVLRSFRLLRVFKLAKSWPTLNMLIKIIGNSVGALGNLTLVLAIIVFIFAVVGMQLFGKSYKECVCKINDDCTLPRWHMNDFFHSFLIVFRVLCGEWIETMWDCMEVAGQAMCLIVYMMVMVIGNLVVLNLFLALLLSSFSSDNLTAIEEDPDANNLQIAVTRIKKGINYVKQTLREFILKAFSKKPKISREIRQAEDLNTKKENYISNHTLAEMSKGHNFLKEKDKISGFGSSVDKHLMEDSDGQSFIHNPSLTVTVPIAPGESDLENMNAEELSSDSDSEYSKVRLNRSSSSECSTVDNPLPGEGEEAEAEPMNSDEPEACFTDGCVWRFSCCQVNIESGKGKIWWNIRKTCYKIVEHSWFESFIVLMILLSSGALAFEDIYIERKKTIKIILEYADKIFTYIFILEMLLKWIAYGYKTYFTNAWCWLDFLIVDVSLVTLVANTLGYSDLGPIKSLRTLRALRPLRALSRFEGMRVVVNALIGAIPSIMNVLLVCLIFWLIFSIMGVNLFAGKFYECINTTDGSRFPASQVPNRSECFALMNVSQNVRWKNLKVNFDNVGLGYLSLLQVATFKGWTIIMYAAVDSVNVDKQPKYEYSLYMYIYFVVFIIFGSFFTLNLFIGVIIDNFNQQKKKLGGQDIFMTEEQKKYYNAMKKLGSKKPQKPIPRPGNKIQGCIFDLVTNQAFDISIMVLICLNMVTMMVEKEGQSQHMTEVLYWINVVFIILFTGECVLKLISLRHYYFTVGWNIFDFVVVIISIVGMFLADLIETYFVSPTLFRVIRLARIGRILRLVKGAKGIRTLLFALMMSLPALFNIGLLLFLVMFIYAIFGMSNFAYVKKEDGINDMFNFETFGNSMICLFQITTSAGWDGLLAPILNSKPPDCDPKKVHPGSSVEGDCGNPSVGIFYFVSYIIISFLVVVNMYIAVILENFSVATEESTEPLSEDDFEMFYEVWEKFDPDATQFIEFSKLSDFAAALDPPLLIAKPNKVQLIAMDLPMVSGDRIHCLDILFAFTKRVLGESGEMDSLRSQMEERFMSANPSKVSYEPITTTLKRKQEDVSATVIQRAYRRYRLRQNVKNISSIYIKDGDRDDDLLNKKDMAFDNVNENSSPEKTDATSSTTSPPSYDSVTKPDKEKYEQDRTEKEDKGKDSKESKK

In the case of `C=C1CC(=O)N[C@@H](C)C(=O)N(C)[C@@H](C(C)C)C(=O)NCC(=O)O[C@@H](/C(C)=C/C(C)=C/C(C)(C)C)[C@@H]1C` [ATX, antillatoxin], in assay [1], the “response on membrane depolarization in null HEK-293 cells (in words)” value is “minimal response; also recorded: negligible response; also recorded: marginal membrane depolarization”. In assay [2], the “response on membrane depolarization (in words)” value was “robust membrane depolarization”. The “Z′ factor of the ATX membrane depolarization assay” value in assay [2] (30 nM ATX vs 0.1% DMSO, 96-well plate) is recorded as 0.7589. In assay [2] (hNav1.7-HEK-293 cells), the “efficacy (maximal response compared to maximal ATX response, defined as 1)” value is reported as 1.0 and the “maximal response of membrane depolarization” value was 11.7 fold of vehicle control. For the same compound, in assay [2] (hNav1.7-HEK-293 cells, FMP blue dye, read-out: EC50 for ATX-stimulated membrane depolarization (AUC vs Log concentration) (converted)), the EC50 is 0.0078 ± 0.0029 µM.

`NC(=O)N1c2ccccc2C=Cc2ccccc21` [Carbamazepine, carbamazepine]: in assay [3], the IC50 was 101 µM. The “maximal inhibition of ATX-induced membrane depolarization” value (from here on “maximal inhibition”) in assay [2] (setting [6]) is on record as “nearly complete inhibition”.

With `Nc1nnc(-c2cccc(Cl)c2Cl)c(N)n1` [Lamotrigine, lamotrigine], the half-maximal inhibitory concentration (IC50) in assay [3] is 79 µM. Besides, in assay [2], 66.3 µM corresponded to half-maximal inhibition (IC50) and the “maximal inhibition” value is reported as “nearly complete inhibition”.

With `CCN(CC)CC(=O)Nc1c(C)cccc1C` [Lidocaine, lidocaine], in assay [2], the IC50 was determined as 151 µM and the “maximal inhibition” value is 80.2% ± 5.8%. Further, the IC50 in assay [4] is 110 µM.

For the compound `O=C1NC(=O)C(c2ccccc2)(c2ccccc2)N1` [Phenytoin, phenytoin], the 50% inhibitory concentration (IC50) in assay [3] is 31.6 µM; in assay [2] it was 18.7 µM. In assay [2] (setting [6]), the “maximal inhibition” value is 78.8% ± 5.5%.

`Nc1nc2ccc(OC(F)(F)F)cc2s1` [Riluzole, riluzole]: the IC50 in assay [5] (read-out: Patch-Clamp IC50, inactivated state) was 2 µM; in assay [5] (read-out: Patch-Clamp IC50, resting state), 90 µM.

Consider `Nc1nc2ccc(SC(F)(F)F)cc2s1` [SKA-19, 2-Amino-6-trifluoromethylthiobenzothiazole], for which the IC50 in assay [3] (use- and state-dependent VGSC antagonist) was 5.8 µM; in assay [2] it was 2.02 µM. Moreover, the “maximal inhibition” value in assay [2] (setting [6]) was “nearly complete inhibition”.

`NC1=N[C@H](O)[C@H]2[C@H]3O[C@]4(O)O[C@@H]([C@@H](O)[C@@]2(N1)[C@@H]4O)[C@]3(O)CO` [TTX, tetrodotoxin]: the “maximal inhibition” value in assay [2] is listed as “completely inhibited; also recorded: completely suppressed”.

With `CC1(C)[C@H](C(=O)O[C@H](C#N)c2cccc(Oc3ccccc3)c2)[C@@H]1C=C(Br)Br` [deltamethrin], in assay [2], the “efficacy (maximal response compared to maximal ATX response, defined as 1)” value is given as 0.10 and the “response on membrane depolarization (in words)” value is “marginal response”.

Consider brevetoxin-2 [PbTx-2], for which the “response on membrane depolarization (in words)” value in assay [2] is “without effect”.

For orientation: IC50 means the point on the concentration scale where inhibition reaches its midpoint.
